The target in one assay is T1, Okp1(EYAA)‐Ame1 (Saccharomyces cerevisiae, UniProt P38313+P53298, E235A/Y238A).
T1 construct: Full‐length mutant Okp1‐Ame1 complex (EYAA or I195Y as indicated) was tested for its association with FITC‐Cse4^END; 6His (C); made in house; host or cells: E. coli
In words: biochemical. Type of assay: binding. The protocol: (§1) Results of a GST pulldown assay are shown. • The minimal Okp1‐Ame1 complex used for crystallography was tested for its association with FITC‐Cse4^END in a fluorescence polarization experiment.
(§2) Fluorescence polarization assays
(§3) FITC‐Cse4^28‐60 peptide was synthesized by the Tufts University Core Facility. 20 nM of FITC‐Cse4^28‐60 peptide was used in all reactions, and Okp1‐Ame1 concentrations were varied to determine the dissociation constant (K D ), in reaction buffer containing 100 mM HEPES, pH 7.5, 200 mM NaCl, 1 mM TCEP (full‐length Okp1‐Ame1 complex) or reaction buffer with 600 mM NaCl (truncated Okp1‐Ame1 complex).

For the next assay, the target named is T2, Okp1‐Ame1(I195Y) (Saccharomyces cerevisiae, UniProt P38313+P53298, I195Y).
T2 construct: Full‐length mutant Okp1‐Ame1 complex (EYAA or I195Y as indicated) was tested for its association with FITC‐Cse4^END; 6His (C); made in house; host or cells: E. coli
Nature of the assay: biochemical. Type of assay: binding. The protocol: as §1, §2, §3

T1 sequence (P38313 whole entry): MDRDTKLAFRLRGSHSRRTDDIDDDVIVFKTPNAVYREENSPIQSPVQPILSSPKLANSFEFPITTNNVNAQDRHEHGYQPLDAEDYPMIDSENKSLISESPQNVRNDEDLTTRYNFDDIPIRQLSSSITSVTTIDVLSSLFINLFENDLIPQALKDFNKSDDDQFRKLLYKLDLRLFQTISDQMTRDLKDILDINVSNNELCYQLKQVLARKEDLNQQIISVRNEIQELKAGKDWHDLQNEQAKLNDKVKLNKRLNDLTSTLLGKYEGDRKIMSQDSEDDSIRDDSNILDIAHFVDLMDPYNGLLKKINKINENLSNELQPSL
T1 sequence (P53298 whole entry E235A/Y238A): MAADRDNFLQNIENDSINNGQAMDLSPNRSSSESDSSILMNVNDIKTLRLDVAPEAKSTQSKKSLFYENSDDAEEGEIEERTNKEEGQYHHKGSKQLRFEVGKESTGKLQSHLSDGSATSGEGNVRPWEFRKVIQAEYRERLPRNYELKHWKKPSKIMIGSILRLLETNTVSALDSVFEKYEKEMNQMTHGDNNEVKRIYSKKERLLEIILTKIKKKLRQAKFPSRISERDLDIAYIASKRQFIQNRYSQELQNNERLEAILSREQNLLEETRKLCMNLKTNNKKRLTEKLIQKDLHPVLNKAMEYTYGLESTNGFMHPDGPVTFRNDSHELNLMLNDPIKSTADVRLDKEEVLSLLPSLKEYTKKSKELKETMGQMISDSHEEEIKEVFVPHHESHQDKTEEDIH
T2 sequence (P38313 whole entry I195Y): as the sequence (P38313 whole entry) above, with I195Y counted along it
T2 sequence (P53298 whole entry): as the sequence (P53298 whole entry E235A/Y238A) above, with A235E, A238Y counted along it

In the case of `CC[C@H](C)[C@H](NC(=O)[C@H](CO)NC(=O)[C@H](CCC(N)=O)NC(=O)[C@H](CCC(N)=O)NC(=O)[C@H](CC(=O)O)NC(=O)CNC(=O)[C@H](C)N)C(=O)N[C@@H](CC(N)=O)C(=O)N[C@@H](CC(=O)O)C(=O)N[C@@H](CCCNC(=N)N)C(=O)N[C@@H](C)C(=O)N[C@@H](CC(C)C)C(=O)N[C@@H](CO)C(=O)N[C@@H](CC(C)C)C(=O)N[C@@H](CC(C)C)C(=O)N[C@@H](CCC(N)=O)C(=O)N[C@@H](CCCNC(=N)N)C(=O)N[C@H](C(=O)N[C@@H](CCCNC(=N)N)C(=O)N[C@@H](C)C(=O)N[C@H](C(=O)N[C@@H](CCCCN)C(=O)N[C@@H](CC(N)=O)C(=O)N[C@@H](CC(C)C)C(=O)N[C@@H](Cc1ccccc1)C(=O)N1CCC[C@H]1C(=O)N[C@@H](CCCNC(=N)N)C(=O)N[C@@H](CCCNC(=N)N)C(=O)N[C@@H](CCC(=O)O)C(=O)N[C@@H](CCC(=O)O)C(=O)N[C@@H](CCCNC(=N)N)C(=O)N[C@@H](CCCNC(=N)N)C(=O)N[C@@H](CCCNC(=N)N)C(=O)O)[C@@H](C)O)[C@@H](C)O` [Cse4^END], the Kd at Okp1(EYAA)‐Ame1 and on Okp1‐Ame1(I195Y) was > 3 µM in each case.

What is called Kd is the concentration at which binding is half-saturated. Low values mean higher affinity, high ones lower affinity.

The values above are taken from PMC10702835, “Recognition of centromere‐specific histone Cse4 by the inner kinetochore Okp1‐Ame1 complex” (EMBO Reports, 2023).
